Read-outs that look alike come from different tables or passages of the source. Square brackets hold non-standard residues; d marks the D form. Peptide text beside a SMILES is read from it. * marks the point of attachment. Pentanoyl(5-PPh3+) = O=C(CCCC[P+](c1ccccc1)(c1ccccc1)c1ccccc1)*; d(pY) = N[C@H](Cc1ccc(OP(=O)(O)O)cc1)C(=O)O; pY = N[C@@H](Cc1ccc(OP(=O)(O)O)cc1)C(=O)O; NBD = O=[N+]([O-])c1ccc(*)c2nonc12; Cbz = O=C(OCc1ccccc1)*; βAla = NCCC(=O)O; CH2F = FC*
Key:
[1] = tested on: HS5 cells; details: 100 µM
[2] = TEM of nanostructures before and after addition of ALP; type: physicochemical; details: 100 µM, before ALP
[3] = tested on: active caspase3; details: Saos2 cells, 50 µM, first 3 h of treatment
[4] = tested on: alkaline phosphatase (ALP); details: substrate 0.1 wt%, ALP 0.1 U/mL
[5] = ALP 1 U/mL, 24 h, PBS buffer pH 7.4
[6] = tested on: Saos2 cells

| SMILES | cytotoxicity against HS5 cells [1] | diameter of uniform nanoparticles (TEM) [2] [nm] | expression level of active caspase3 relative to untreated cells [3] | percentage of enzymatic dephosphorylation after 24 h [4] | t1/2 of ALP catalyzed dephosphorylation [4] [min] | increase of the SLS signal after addition of ALP ([5]; 25 µM precursor) [fold] | increase of the SLS signal after addition of ALP ([5]; 50 µM precursor) [fold] | increase of the SLS signal after addition of ALP ([5]; 100 µM precursor) [fold] | increase of the SLS signal after addition of ALP ([5]; 200 µM precursor) [fold] | cell viability of unstimulated Saos2 ([6]; 50 µM, 48h) [%] | toxicity on Saos2 cells of the inhibitor itself ([6]; 45 µM) |
| --- | --- | --- | --- | --- | --- | --- | --- | --- | --- | --- | --- |
| O=C(CCCC[P+](c1ccccc1)(c1ccccc1)c1ccccc1)NCCCC[C@@H](NC(=O)[C@@H](Cc1ccc(OP(=O)(O)O)cc1)NC(=O)[C@@H](Cc1ccccc1)NC(=O)[C@@H](Cc1ccccc1)NC(=O)CCNc1ccc([N+](=O)[O-])c2nonc12)C(=O)O [D-1P] ({NBD-βAla}-[dF][dF][d(pY)][dK](Pentanoyl(5-PPh3+))-OH) | almost innocuous | 25 ±2 | about 1.7 fold | about 90% | 33 | 43 | 10 | 8 | 4 | – | – |
| O=C(CCCC[P+](c1ccccc1)(c1ccccc1)c1ccccc1)NCCCC[C@H](NC(=O)[C@H](Cc1ccc(OP(=O)(O)O)cc1)NC(=O)[C@H](Cc1ccccc1)NC(=O)[C@H](Cc1ccccc1)NC(=O)CCNc1ccc([N+](=O)[O-])c2nonc12)C(=O)O [L-1P] ({NBD-βAla}-FF[pY]K(Pentanoyl(5-PPh3+))-OH) | almost innocuous | – | changes little | ~80% | 68.4 | 120 | 48 | 18 | 14 | 71.7 | – |
| COC(=O)C[C@H](NC(=O)[C@H](C)NC(=O)[C@@H](NC(=O)OCc1ccccc1)C(C)C)C(=O)CF [zVAD-fmk, reference compound] (Cbz-Val-Ala-Asp(OMe)-CH2F) | – | – | – | – | – | – | – | – | – | – | no toxicity |

— publication PMC5291163 (Journal of the American Chemical Society, 2016)
